{
  "source": "patent US20250177410A1",
  "about": "“COMBINATION THERAPIES COMPRISING A SOS1 INHIBITOR AND AN EGFR INHIBITOR” (Mirati Therapeutics, Inc., priority 2022, published 2025)",
  "key": {"[1]": {"system": "PC9 cells harboring EGFR exon 19del (E746_A750del) mutation", "experimental": "(§1) Immunocompromised NOD/SCID mice are inoculated in the right hind flank with PC9 cells harboring EGFR exon 19del (E746_A750del) mutation. When tumor volumes reach between 100-150 mm^3 in size, the mice are divided into four groups of 4-12 mice each. The first group is administered vehicle only. […] The fourth and fifth groups are administered the single agent dose of the EGFR inhibitor in combination with the single agent dose of the SOS1 inhibitor. The treatment period was 27 days. Tumor volumes are measured using a caliper every two-three days and tumor volumes are calculated by the formula: 0.5×(Length×Width) 2.\n30 NOD/SCID mice were inoculated in the right hind limb with 5×10^6 PC9 cells."}, "[2]": {"system": "NCI-H1975 cells harboring EGFR L585R/T790M mutations", "experimental": "as §1, with “nude/nude” for “NOD/SCID”, “NCI-H1975” for “PC9”, “L585R/T790M mutations.” for “exon 19del (E746_A750del) mutation.”, “200-400” for “100-150”, “21” for “27”, “0.5×(Length×Width)2.” for “0.5×(Length×Width) 2.”\n30 nude/nude mice were inoculated in the right hind limb with 5×10^6 NCI-H1975 cells."}, "[3]": {"settings": "Study Day 3, MRTX0902 50 mg/kg p.o."}, "[4]": {"settings": "Study Day 10, MRTX0902 50 mg/kg p.o."}, "[5]": {"settings": "Study Day 14, MRTX0902 50 mg/kg p.o."}, "[6]": {"settings": "Study Day 21, MRTX0902 50 mg/kg p.o."}, "[7]": {"settings": "Study Day 3, Osimertinib 2.5 mg/kg QD p.o."}, "[8]": {"settings": "Study Day 10, Osimertinib 5 mg/kg QD p.o."}, "[9]": {"settings": "Study Day 21, Osimertinib 5 mg/kg QD p.o."}},
  "note": "Read-outs that look alike come from different tables or passages of the source.",
  "data": [
    {"smiles": "Cc1c(C#N)cccc1[C@@H](C)Nc1nnc(C)c2cnc(N3CCOCC3)cc12", "note": "[MRTX0902, (R)-2-methyl-3-(1-((4-methyl-7-morpholinopyrido[3,4-d]pyridazin-1-yl)amino)ethyl)benzonitrile]", "values": [
      {"measurement": "tumor growth inhibition", "setting": "[1]; MRTX0902 50 mg/kg BID", "result": 54, "unit": "%"},
      {"measurement": "Average Tumor Volume", "setting": "[1]; [3]", "result": 197, "unit": "mm^3"},
      {"measurement": "Average Tumor Volume", "setting": "[1]; Study Day 6, MRTX0902 50 mg/kg p.o.", "result": 247, "unit": "mm^3"},
      {"measurement": "Average Tumor Volume", "setting": "[1]; [4]", "result": 330, "unit": "mm^3"},
      {"measurement": "Average Tumor Volume", "setting": "[1]; [5]", "result": 442, "unit": "mm^3"},
      {"measurement": "Average Tumor Volume", "setting": "[1]; Study Day 18, MRTX0902 50 mg/kg p.o.", "result": 578, "unit": "mm^3"},
      {"measurement": "Average Tumor Volume", "setting": "[1]; [6]", "result": 661, "unit": "mm^3"},
      {"measurement": "Average Tumor Volume", "setting": "[1]; Study Day 24, MRTX0902 50 mg/kg p.o.", "result": 755, "unit": "mm^3"},
      {"measurement": "Average Tumor Volume", "setting": "[1]; Study Day 27, MRTX0902 50 mg/kg p.o.", "result": 798, "unit": "mm^3"},
      {"measurement": "Average Tumor Volume", "setting": "[1]; Study Day −1, MRTX0902 50 mg/kg p.o.", "result": 112, "unit": "mm^3"},
      {"measurement": "tumor growth inhibition", "setting": "[2]; MRTX0902 50 mg/kg BID single agent", "result": 26, "unit": "%"},
      {"measurement": "Average Tumor Volume", "setting": "[2]; Study Day 0, MRTX0902 50 mg/kg p.o.", "result": 285, "unit": "mm^3"},
      {"measurement": "Average Tumor Volume", "setting": "[2]; [3]", "result": 504, "unit": "mm^3"},
      {"measurement": "Average Tumor Volume", "setting": "[2]; Study Day 7, MRTX0902 50 mg/kg p.o.", "result": 808, "unit": "mm^3"},
      {"measurement": "Average Tumor Volume", "setting": "[2]; [4]", "result": 1028, "unit": "mm^3"},
      {"measurement": "Average Tumor Volume", "setting": "[2]; [5]", "result": 1387, "unit": "mm^3"},
      {"measurement": "Average Tumor Volume", "setting": "[2]; Study Day 17, MRTX0902 50 mg/kg p.o.", "result": 1527, "unit": "mm^3"},
      {"measurement": "Average Tumor Volume", "setting": "[2]; [6]", "result": 1372, "unit": "mm^3"}
    ]},
    {"smiles": "C=CC(=O)Nc1cc(Nc2nccc(-c3cn(C)c4ccccc34)n2)c(OC)cc1N(C)CCN(C)C", "note": "[Osimertinib, osimertinib]", "values": [
      {"measurement": "Average Tumor Volume", "setting": "[1]; [7]", "result": 124, "unit": "mm^3"},
      {"measurement": "Average Tumor Volume", "setting": "[1]; Study Day 6, Osimertinib 5 mg/kg QD p.o.", "result": 95, "unit": "mm^3"},
      {"measurement": "Average Tumor Volume", "setting": "[1]; [8]", "result": 69, "unit": "mm^3"},
      {"measurement": "Average Tumor Volume", "setting": "[1]; Study Day 14, Osimertinib 5 mg/kg QD p.o.", "result": 65, "unit": "mm^3"},
      {"measurement": "Average Tumor Volume", "setting": "[1]; Study Day 18, Osimertinib 2.5 mg/kg QD p.o.", "result": 150, "unit": "mm^3"},
      {"measurement": "Average Tumor Volume", "setting": "[1]; Study Day 18, Osimertinib 5 mg/kg QD p.o.", "result": 60, "unit": "mm^3"},
      {"measurement": "Average Tumor Volume", "setting": "[1]; [9]", "result": 62, "unit": "mm^3"},
      {"measurement": "Average Tumor Volume", "setting": "[1]; Study Day 24, Osimertinib 2.5 mg/kg QD p.o.", "result": 209, "unit": "mm^3"},
      {"measurement": "Average Tumor Volume", "setting": "[1]; Study Day 27, Osimertinib 2.5 mg/kg QD p.o.", "result": 214, "unit": "mm^3"},
      {"measurement": "Average Tumor Volume", "setting": "[1]; Study Day −1, Osimertinib 2.5 mg/kg QD p.o.", "result": 108, "unit": "mm^3"},
      {"measurement": "tumor growth", "setting": "[1]; mouse, in vivo", "result": 92.8, "unit": "%"},
      {"measurement": "tumor regression", "setting": "[1]; osimertinib 5 mg/kg single agent, day 27", "result": "−32.5", "unit": "%"},
      {"measurement": "Average Tumor Volume", "setting": "[2]; Study Day 0, Osimertinib 2.5 mg/kg QD p.o.", "result": 286, "unit": "mm^3"},
      {"measurement": "Average Tumor Volume", "setting": "[2]; Study Day 0, Osimertinib 5 mg/kg QD p.o.", "result": 286, "unit": "mm^3"},
      {"measurement": "Average Tumor Volume", "setting": "[2]; [7]", "result": 288, "unit": "mm^3"},
      {"measurement": "Average Tumor Volume", "setting": "[2]; Study Day 3, Osimertinib 5 mg/kg QD p.o.", "result": 173, "unit": "mm^3"},
      {"measurement": "Average Tumor Volume", "setting": "[2]; Study Day 7, Osimertinib 2.5 mg/kg QD p.o.", "result": 325, "unit": "mm^3"},
      {"measurement": "Average Tumor Volume", "setting": "[2]; [8]", "result": 70, "unit": "mm^3"},
      {"measurement": "Average Tumor Volume", "setting": "[2]; Study Day 17, Osimertinib 2.5 mg/kg QD p.o.", "result": 468, "unit": "mm^3"},
      {"measurement": "Average Tumor Volume", "setting": "[2]; Study Day 17, Osimertinib 5 mg/kg QD p.o.", "result": 83, "unit": "mm^3"},
      {"measurement": "Average Tumor Volume", "setting": "[2]; [9]", "result": 135, "unit": "mm^3"},
      {"measurement": "tumor growth", "setting": "[2]; mouse, in vivo", "result": 89, "unit": "%"},
      {"measurement": "tumor regression", "setting": "[2]; osimertinib 5 mg/kg single agent, day 17", "result": "−71", "unit": "%"}
    ]}
  ]
}
